Where two headings read alike, the source gives them in different places.
Target: His-tagged KRAS G12D protein (Homo sapiens, UniProt P01116, G12D)
Experiment: KRAS G12D TR-FRET Assay
Assay type: binding
Protocol: The His-tagged KRAS G12D protein (Amgen) was diluted to 20 nM in Assay Buffer (20 mM HEPES, pH 7.4, 10 mM MgCl2, 50 mM NaCl, 0.1% BSA, 0.01% Tween-20, 10 μM GDP) and 2 μL was added to the appropriate wells of the 384-well plate. The plate was incubated for 30 minutes at room temperature. Biotinylated KRPep-2d substrate (Amgen) was diluted to 20 nM in Assay Buffer and 2 μL was added to all wells and incubated for 1 hour at room temperature. Detection Reagent (0.4 nM LANCE Eu-W1024 Anti-6×His (Perkin Elmer AD0401), 5 nM streptavidin-d2 (Cisbio 610SADLA)) was prepared in Assay Buffer, then 4 μL was added to the plate and incubated for 1 hour at room temperature.

[1] = TR-FRET, read-out: KRAS G12D Binding IC50

Chain of His-tagged KRAS G12D protein (P01116 1-188 isoform P01116-2 G12D): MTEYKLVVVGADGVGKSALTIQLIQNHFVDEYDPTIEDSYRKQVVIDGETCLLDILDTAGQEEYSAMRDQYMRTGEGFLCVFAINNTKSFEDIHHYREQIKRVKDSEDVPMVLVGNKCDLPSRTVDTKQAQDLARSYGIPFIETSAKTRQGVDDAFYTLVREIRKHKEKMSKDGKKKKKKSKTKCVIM

Row | SMILES | IC50 [1] [nM] | IC50 (TR-FRET binding) [nM]
1 | Fc1c2ncc3c(nc(OC[C@@]45CCCN4C[C@H](F)C5)nc13)N1CCC[C@H](C1)Cn1ncc(n1)[C@@H]1C[C@@H]1c1c(Cl)cc3[nH]ncc3c1-2 (relative stereo) [Example 383, (11R,13S,19R)-rel-9-chloro-32-fluoro-26-(((2.R.7aS)-2-fluorotetrahydro-1H-pyrrolo[1,2-α]pyrrol-7a(5H)-yl)methoxy)-5,6,16,17,23,25,27,31,34-nonaazaoctacyclo[26.3.1.1~14,17~1~19,23~.0~2,10~0~3,7~.0~11,13~.0~24,29~]tetratriaconta-1(32),2.4,7,9,14(34),15,24,26,28,30-undecaene] | 13 | –
2 | Cc1cc2[nH]ncc2c2c1CCCOC(=O)N[C@]1(C)CCCCN(C1)c1nc(OC[C@@]34CCCN3C[C@H](F)C4)nc3c(F)c-2ncc13 (single isomer, unassigned) [Example 292] | – | 4
3 | Cc1cc2[nH]ncc2c2c1/C=C\COC(=O)O[C@@H]1CCCN(C1)c1nc(OC[C@@]34CCCN3C[C@H](F)C4)nc3c(F)c-2ncc13 (single isomer, unassigned) [Example 123] | – | 8
4 | Fc1c2ncc3c(nc(OC[C@@]45CCCN4C[C@H](F)C5)nc13)N1CCCC[C@H](C1)c1cnn(n1)CCCc1c(Cl)cc3[nH]ncc3c1-2 (single isomer, unassigned) [Example 296] | – | 4
5 | O=C1OCCCc2c(Cl)cc3[nH]ncc3c2-c2ncc3c(nc(OC[C@@]45CCCN4C[C@H](F)C5)nc3c2F)N2CC[C@@H]3CCN1[C@@H]3C2 (single isomer, unassigned) [Example 176] | – | 287
6 | C[C@]12CCCN(C1)c1nc(OC[C@@]34CCCN3C[C@H](F)C4)nc3c(F)c(ncc13)-c1cccc3ccc(F)c(c13)CCOC(=O)N2 (single isomer, unassigned) [Example 78] | – | 3810
7 | CN1CCC[C@H]1COc1nc2c3cnc(c(F)c3n1)-c1c(c(Cl)cc3[nH]ncc13)CCCOC(=O)O[C@@]1(CF)COCCN2C1 (single isomer, unassigned) [Example 337] | – | 2440
8 | O=C1CCCc2c(F)ccc3cccc(c23)-c2ncc3c(nc(OC[C@@]45CCCN4C[C@H](F)C5)nc3c2F)N2CC[C@H]3CCN1[C@H]3C2 (single isomer, unassigned) [Example 72] | – | 3
9 | Fc1c2ncc3c(nc(OC[C@@]45CCCN4C[C@H](F)C5)nc13)N1CCO[C@@H](COCC[C@@H]3C[C@@H]3c3c(Cl)cc4[nH]ncc4c3-2)C1 (single isomer, unassigned) [Example 392] | 6 | –
10 | Cc1cc2[nH]ncc2c2c1CCC[C@@H](F)C(=O)N(C)[C@@H]1CCCN(C1)c1nc(OC[C@@]34CCCN3C[C@H](F)C4)nc3c(F)c-2ncc13 (single isomer, unassigned) [Example 52] | – | 19
11 | Fc1c2ncc3c(nc(OC[C@@]45CCCN4C[C@H](F)C5)nc13)N1CCCC[C@](F)(COCCCCc3c(Cl)cc4[nH]ncc4c3-2)C1 (single isomer, unassigned) [Example 398] | 4 | –
12 | C[C@@]12COCCN(C1)c1nc(OC[C@@]34CCCN3C[C@H](F)C4)nc3c(F)c(ncc13)-c1c3c(cc4[nH]ncc14)CC[C@H]3CCOC(=O)O2 (single isomer, unassigned) [Example 365] | – | 3
13 | O=C1OC[C@H]2C[C@@H]2c2c(Cl)cc3[nH]ncc3c2-c2ncc3c(nc(OC[C@@]45CCCN4C[C@H](F)C5)nc3c2F)N2CCC[C@H](C2)O1 (racemic) [Example 113] | – | 10
14 | Cc1cc2[nH]ncc2c2c1CCCCO[C@H](C)[C@@H]1CN(CCO1)c1nc(OC[C@@]34CCCN3C[C@H](F)C4)nc3c(F)c-2ncc13 (single isomer, unassigned) [Example 243] | – | 4480
15 | Cc1cc2[nH]ncc2c2c1CCCCO[C@H](C)[C@H]1CN(CCO1)c1nc(OC[C@@]34CCCN3C[C@H](F)C4)nc3c(F)c-2ncc13 (single isomer, unassigned) [Example 241] | – | 1290
16 | O=C1N[C@@H]2CCCCN(C2)c2nc(OC[C@@]34CCCN3C[C@H](F)C4)nc3c(F)c(ncc23)-c2c3c(cc4[nH]ncc24)CC[C@H]3CCO1 (single isomer, unassigned) [Example 301] | – | 5
17 | Fc1c2ncc3c(nc(OC[C@@]45CCCN4C[C@H](F)C5)nc13)N1CCCC[C@@H](C1)c1cnn(n1)CCCc1c(Cl)cc3[nH]ncc3c1-2 (single isomer, unassigned) [Example 295] | – | 2250
18 | O=C1N[C@@H]2CCCCN(C2)c2nc(OC[C@@]34CCCN3C[C@H](F)C4)nc3c(F)c(ncc23)-c2c3c(cc4[nH]ncc24)CC[C@@H]3CCO1 (single isomer, unassigned) [Example 302] | – | 1270
19 | Fc1c2ncc3c(nc(OC[C@@]45CCCN4C[C@H](F)C5)nc13)N1CCOC[C@H](C1)c1cnn(n1)CCCc1c(Cl)cc3[nH]ncc3c1-2 (single isomer, unassigned) [Example 298] | – | 7

Row | SMILES | IC50 [1] [nM] | IC50 (TR-FRET binding) [nM]
20 | Fc1c2ncc3c(nc(OC[C@@]45CCCN4C[C@H](F)C5)nc13)N1CCOC[C@H](Cc3ncc(o3)CCc3c(Cl)cc4[nH]ncc4c3-2)C1 (single isomer, unassigned) [Example 375] | 27 | –
21 | CN1C(=O)COCC[C@@H]2CCc3cc4[nH]ncc4c(c32)-c2ncc3c(nc(OC[C@@]45CCCN4C[C@H](F)C5)nc3c2F)N2CCC[C@@H]1C2 (single isomer, unassigned) [Example 279] | – | 333
22 | CN1CCC[C@H]1COc1nc2c3cnc(c(F)c3n1)-c1c(c(Cl)cc3[nH]ncc13)CCCOC(=O)O[C@]1(C)COCCN2C1 (single isomer, unassigned) [Example 181] | – | 6
23 | Cc1cc2[nH]ncc2c2c1CCCC(F)C(=O)N[C@@H]1CCCCN(C1)c1nc(OC[C@@]34CCCN3C[C@H](F)C4)nc3c(F)c-2ncc13 (single isomer, unassigned) [Example 160] | – | 4
24 | Cc1cc2[nH]ncc2c2c1C[C@@H](C)COC(=O)O[C@@H]1CCCN(C1)c1nc(OC[C@@]34CCCN3C[C@H](F)C4)nc3c(F)c-2ncc13 (single isomer, unassigned) [Example 214] | – | 22
25 | Fc1c2ncc3c(nc(OC[C@@]45CCCN4C[C@H](F)C5)nc13)N1CCC[C@@H](C1)c1cnc(o1)CCCc1c(Cl)cc3[nH]ncc3c1-2 (single isomer, unassigned) [Example 386] | 3730 | –
26 | Cc1cc2[nH]ncc2c2c1CCCOC(=O)O[C@]1(C)COCCN(C1)c1nc(OC[C@@H]3CCCN3C)nc3c(F)c-2ncc13 (single isomer, unassigned) [Example 183] | – | 8
27 | Fc1c2ncc3c(nc(OC[C@@]45CCCN4C[C@H](F)C5)nc13)N1CCCCC(C1)c1noc(n1)CCCc1c(Cl)cc3[nH]ncc3c1-2 (mixture of isomers) [Example 382, (1RS)-10-chloro-33-fluoro-24-(((2R,7a.S)-2-fluorotetrahydro-1H-pyrrolo[1,2-α]pyrrol-7a(5H)-yl)methoxy)-4-oxa-3,13,14,19,23,25,27,34-octaazaheptacyclo[25.4.1.1~2,5~.1~18,22~.0~9,17~0~12,16~.0~21,26~]tetratriaconta-2,5(34),9,11,14,16,18(33),19,21,23,25-undecaene] | 5 | –
28 | Cc1cc2[nH]ncc2c2c1CCCOC(=O)N[C@@]1(C)CCCCN(C1)c1nc(OC[C@@]34CCCN3C[C@H](F)C4)nc3c(F)c-2ncc13 (single isomer, unassigned) [Example 293] | – | 50000
29 | CN(C)CC1(COc2nc3c4cnc(c(F)c4n2)-c2c(c(Cl)cc4[nH]ncc24)CCCOC(=O)O[C@@]2(C)COCCN3C2)CC1 (single isomer, unassigned) [Example 332] | – | 3240
30 | O=C1CCCCc2c(Cl)cc3[nH]ncc3c2-c2ncc3c(nc(OC[C@@]45CCCN4C[C@H](F)C5)nc3c2F)N2CC[C@@H]3[C@H](C2)N1CC3(F)F (single isomer, unassigned) [Example 403] | 3 | –
31 | Fc1c2ncc3c(nc(OC[C@@]45CCCN4C[C@H](F)C5)nc13)N1CCC[C@@H](C1)c1coc(n1)CCCc1c(Cl)cc3[nH]ncc3c1-2 (single isomer, unassigned) [Example 245] | – | 583
32 | [2H]C([2H])([2H])[C@]12COCCN(C1)c1nc(OC[C@@]34CCCN3C[C@H](F)C4)nc3c(F)c(ncc13)-c1c(c(C)cc3[nH]ncc13)CCCOC(=O)O2 (single isomer, unassigned) [Example 351] | – | 464
33 | O[C@H]1C[C@H]2COCCCCc3c(Cl)cc4[nH]ncc4c3-c3ncc4c(nc(OC[C@@]56CCCN5C[C@H](F)C6)nc4c3F)N(C1)C2 (single isomer, unassigned) [Example 407] | 6 | –
34 | Cc1cc2[nH]ncc2c2c1CCC[C@H](F)C(=O)N(C)[C@@H]1CCCN(C1)c1nc(OC[C@@]34CCCN3C[C@H](F)C4)nc3c(F)c-2ncc13 (single isomer, unassigned) [Example 51] | – | 10
35 | Fc1cc2[nH]ncc2c2c1CCCCOC[C@@H]1CCCCN(C1)c1nc(OC[C@@]34CCCN3C[C@H](F)C4)nc3c(F)c-2ncc13 (single isomer, unassigned) [Example 239] | – | 6
36 | O=C1OCCCc2c(Cl)cc3[nH]ncc3c2-c2ncc3c(nc(OC[C@@]45CCCN4C[C@H](F)C5)nc3c2F)N2CCOC[C@](CF)(C2)O1 (single isomer, unassigned) [Example 311] | – | 5
37 | Cc1cc2[nH]ncc2c2c1C[C@H](C)COC(=O)O[C@@H]1CCCN(C1)c1nc(OC[C@@]34CCCN3C[C@H](F)C4)nc3c(F)c-2ncc13 (single isomer, unassigned) [Example 215] | – | 15
38 | C[C@@H]1CCOC[C@H]2CN(CCO2)c2nc(OC[C@@]34CCCN3C[C@H](F)C4)nc3c(F)c(ncc23)-c2c(c(Cl)cc3[nH]ncc23)C1 (single isomer, unassigned) [Example 253] | – | 9
